Results as given in US11753395B2 (Kinnate Biopharma Inc., priority 2021, dated 2023).

Key:
[1] = molecular target: T1, Ba/F3-TPR-MET cells (Homo sapiens, UniProt P08581); experiment: CellTiter-Glo Cell Viability Assay, Ba/F3-TPR-MET; type: cell-based; conditions: 72 hours
T1 construct: fused on or other part: P12270 (Nucleoprotein TPR)
Procedure, shortened: (§1)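 IC50 values come from curve-fitted luminescence. Viable-cell ATP was read by CellTiter-Glo 2.0 after a 72 h, 37 °C incubation of 3000 TPR-MET or D1228N-mutant Ba/F3 cells per well. Compounds were tested as a 9-point, 3-fold series with 0.1% DMSO final.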

[2] = molecular target: T2, MET (Homo sapiens, UniProt P08581); experiment: MET Mobility Shift Assay; conditions: biochemical assay IC50; 100 μM ATP, 60 minute kinase reaction
T2 construct: purchased Carna Biosciences 08-151
Procedure, shortened: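 IC50s come from inhibition of substrate-to-phosphopeptide conversion, read by electrophoretic mobility shift. Reaction: 100 μM ATP, 1.5 μM 5-FAM peptide, 0.625 nM MET, 10 mM MgCl2, 60 min, after a 30 min room-temperature enzyme pre-incubation, quenched with EDTA.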

[3] = molecular target: T3, Ba/F3-TPR-MET-D1228N cells (Homo sapiens, UniProt P08581, D1228N, cells depend on it); experiment: CellTiter-Glo Cell Viability Assay, Ba/F3-TPR-MET-D1228N; type: cell-based; conditions: 72 hours
T3 construct: fused on or other part: P12270 (Nucleoprotein TPR)
Procedure, shortened: as §1

[4] = molecular target: T4, MET D1228N (Homo sapiens, UniProt P08581, D1228N); experiment: MET D1228N Mobility Shift Assay; conditions: biochemical assay IC50; 100 μM ATP, 60 minute kinase reaction
T4 construct: purchased Signalchem M52-12IG
Procedure, shortened: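 Microfluidic electrophoresis quantified phosphorylated versus unphosphorylated 5-FAM-KKKKEEIYFFF peptide (1.5 μM) after a 60 min reaction with 100 μM ATP. MET D1228N (0.313 nM) in 50 mM HEPES, 10 mM MgCl2, 2 mM DTT was preincubated 30 min; IC50 fitted to conversion inhibition.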

T2 sequence (P08581 25-1390): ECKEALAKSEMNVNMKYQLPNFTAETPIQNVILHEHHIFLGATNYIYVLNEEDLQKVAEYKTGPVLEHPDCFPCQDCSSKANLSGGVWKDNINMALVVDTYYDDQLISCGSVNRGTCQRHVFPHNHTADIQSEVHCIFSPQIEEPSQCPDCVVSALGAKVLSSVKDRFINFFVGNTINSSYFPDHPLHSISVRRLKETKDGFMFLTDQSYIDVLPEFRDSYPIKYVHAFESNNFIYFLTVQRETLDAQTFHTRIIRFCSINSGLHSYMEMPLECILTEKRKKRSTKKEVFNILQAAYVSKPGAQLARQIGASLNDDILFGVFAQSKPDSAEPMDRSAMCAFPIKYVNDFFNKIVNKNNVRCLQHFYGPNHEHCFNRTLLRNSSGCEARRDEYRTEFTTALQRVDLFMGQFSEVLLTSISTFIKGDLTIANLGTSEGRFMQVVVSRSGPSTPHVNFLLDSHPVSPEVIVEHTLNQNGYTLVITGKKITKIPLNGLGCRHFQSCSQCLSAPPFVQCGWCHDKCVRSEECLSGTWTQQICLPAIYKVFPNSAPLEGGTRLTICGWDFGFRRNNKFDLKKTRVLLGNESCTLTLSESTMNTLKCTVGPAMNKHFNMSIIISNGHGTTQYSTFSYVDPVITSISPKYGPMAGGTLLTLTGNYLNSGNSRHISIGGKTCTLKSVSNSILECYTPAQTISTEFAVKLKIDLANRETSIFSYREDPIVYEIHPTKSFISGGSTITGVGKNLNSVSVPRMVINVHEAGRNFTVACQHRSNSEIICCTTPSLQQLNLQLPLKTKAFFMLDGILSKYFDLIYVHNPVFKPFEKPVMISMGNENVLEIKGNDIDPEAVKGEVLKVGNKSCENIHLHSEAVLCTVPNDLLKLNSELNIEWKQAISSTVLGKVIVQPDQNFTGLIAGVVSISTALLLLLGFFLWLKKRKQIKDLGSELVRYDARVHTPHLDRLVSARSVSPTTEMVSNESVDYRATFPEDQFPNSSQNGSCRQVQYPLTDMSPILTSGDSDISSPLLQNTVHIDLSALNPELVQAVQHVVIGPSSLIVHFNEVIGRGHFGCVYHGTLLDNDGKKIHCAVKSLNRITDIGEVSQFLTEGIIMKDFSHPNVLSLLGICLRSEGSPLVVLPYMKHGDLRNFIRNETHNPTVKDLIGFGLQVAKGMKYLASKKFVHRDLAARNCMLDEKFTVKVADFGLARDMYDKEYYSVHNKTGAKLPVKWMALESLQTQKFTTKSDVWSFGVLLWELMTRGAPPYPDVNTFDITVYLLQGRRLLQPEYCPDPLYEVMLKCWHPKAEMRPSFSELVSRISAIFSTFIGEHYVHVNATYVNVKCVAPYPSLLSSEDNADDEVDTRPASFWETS
T3 sequence (P08581 whole entry D1228N, the tested form may be a part): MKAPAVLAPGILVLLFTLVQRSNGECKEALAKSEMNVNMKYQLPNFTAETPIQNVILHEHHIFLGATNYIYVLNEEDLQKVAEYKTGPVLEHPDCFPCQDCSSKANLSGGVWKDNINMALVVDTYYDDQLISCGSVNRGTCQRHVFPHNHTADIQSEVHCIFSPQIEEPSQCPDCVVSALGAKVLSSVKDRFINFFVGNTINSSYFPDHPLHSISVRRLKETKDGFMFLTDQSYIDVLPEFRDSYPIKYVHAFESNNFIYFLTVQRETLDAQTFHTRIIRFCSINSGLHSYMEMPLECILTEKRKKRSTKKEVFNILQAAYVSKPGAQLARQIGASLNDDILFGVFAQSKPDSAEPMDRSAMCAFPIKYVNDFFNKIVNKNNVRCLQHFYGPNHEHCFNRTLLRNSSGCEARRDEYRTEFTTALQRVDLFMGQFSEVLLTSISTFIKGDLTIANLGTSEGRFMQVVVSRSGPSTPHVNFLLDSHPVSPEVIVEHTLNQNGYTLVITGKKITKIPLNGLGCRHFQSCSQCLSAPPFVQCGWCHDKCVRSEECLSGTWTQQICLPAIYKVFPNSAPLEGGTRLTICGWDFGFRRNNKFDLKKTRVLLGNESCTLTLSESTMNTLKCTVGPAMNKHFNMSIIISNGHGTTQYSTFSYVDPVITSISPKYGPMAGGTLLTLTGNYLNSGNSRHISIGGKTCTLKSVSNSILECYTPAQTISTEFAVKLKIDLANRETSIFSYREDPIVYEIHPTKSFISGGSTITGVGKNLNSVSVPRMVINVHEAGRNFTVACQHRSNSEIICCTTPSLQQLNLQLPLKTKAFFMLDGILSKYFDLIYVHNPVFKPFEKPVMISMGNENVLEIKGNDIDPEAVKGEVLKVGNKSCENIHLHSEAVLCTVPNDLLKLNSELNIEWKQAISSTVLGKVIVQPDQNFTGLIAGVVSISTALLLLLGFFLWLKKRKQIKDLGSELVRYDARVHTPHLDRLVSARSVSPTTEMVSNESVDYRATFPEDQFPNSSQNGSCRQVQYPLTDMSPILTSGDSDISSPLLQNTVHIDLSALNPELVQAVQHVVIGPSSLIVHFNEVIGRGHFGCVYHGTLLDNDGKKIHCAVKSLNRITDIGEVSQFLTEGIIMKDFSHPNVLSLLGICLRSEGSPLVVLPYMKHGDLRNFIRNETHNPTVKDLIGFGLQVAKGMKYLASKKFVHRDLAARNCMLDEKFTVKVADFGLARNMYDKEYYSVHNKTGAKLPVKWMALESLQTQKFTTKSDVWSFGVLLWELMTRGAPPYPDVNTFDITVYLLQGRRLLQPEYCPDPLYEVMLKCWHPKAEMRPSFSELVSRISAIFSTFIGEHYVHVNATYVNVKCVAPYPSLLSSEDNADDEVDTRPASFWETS
T1 sequence (P08581 whole entry, change not shown, the tested form may be a part): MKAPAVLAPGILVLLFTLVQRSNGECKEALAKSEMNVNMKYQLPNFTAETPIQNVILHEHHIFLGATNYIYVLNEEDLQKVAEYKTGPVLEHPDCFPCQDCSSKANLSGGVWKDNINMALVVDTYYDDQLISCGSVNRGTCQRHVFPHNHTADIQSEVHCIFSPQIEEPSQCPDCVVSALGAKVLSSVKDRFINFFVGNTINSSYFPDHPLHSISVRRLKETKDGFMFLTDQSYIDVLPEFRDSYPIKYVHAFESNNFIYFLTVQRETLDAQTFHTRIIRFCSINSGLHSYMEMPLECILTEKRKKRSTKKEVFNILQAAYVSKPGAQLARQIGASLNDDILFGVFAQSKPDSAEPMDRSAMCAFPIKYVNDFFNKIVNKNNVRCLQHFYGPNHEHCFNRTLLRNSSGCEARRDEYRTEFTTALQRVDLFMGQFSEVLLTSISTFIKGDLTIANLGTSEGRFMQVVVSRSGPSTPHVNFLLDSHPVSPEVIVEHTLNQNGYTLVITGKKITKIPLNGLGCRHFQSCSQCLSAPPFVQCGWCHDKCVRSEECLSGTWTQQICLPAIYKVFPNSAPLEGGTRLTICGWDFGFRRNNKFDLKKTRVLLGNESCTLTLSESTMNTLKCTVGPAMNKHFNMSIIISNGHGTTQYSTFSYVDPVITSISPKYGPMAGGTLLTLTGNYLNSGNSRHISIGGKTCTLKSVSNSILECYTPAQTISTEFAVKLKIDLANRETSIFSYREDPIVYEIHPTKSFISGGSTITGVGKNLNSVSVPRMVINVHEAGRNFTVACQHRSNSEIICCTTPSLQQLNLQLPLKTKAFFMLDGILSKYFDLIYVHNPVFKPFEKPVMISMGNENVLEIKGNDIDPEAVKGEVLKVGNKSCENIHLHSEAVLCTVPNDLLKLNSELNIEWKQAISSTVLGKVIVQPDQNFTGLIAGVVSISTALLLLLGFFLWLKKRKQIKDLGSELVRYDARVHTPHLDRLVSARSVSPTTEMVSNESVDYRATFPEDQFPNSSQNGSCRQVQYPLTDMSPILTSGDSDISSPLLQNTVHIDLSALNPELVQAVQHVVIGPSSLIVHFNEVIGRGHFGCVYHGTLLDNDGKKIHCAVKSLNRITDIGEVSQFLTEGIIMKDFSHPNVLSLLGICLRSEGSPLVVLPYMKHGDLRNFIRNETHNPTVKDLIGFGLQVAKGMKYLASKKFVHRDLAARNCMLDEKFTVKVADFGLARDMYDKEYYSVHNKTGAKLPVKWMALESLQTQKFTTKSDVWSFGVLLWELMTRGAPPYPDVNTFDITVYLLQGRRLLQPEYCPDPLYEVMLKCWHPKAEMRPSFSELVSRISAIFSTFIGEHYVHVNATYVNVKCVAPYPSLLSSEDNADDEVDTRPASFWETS

| SMILES | EC50 [1] [nM] | IC50 [2] [nM] | EC50 [3] [nM] | IC50 [4] [nM] |
| --- | --- | --- | --- | --- |
| COc1cc2c(Oc3c(F)cc(NC(=O)c4cnccc4OC4CC4)cc3F)ccnc2cc1OC[C@H](C)O [Example 98, 4-cyclopropoxy-N-[3,5-difluoro-4-({7-[(2S)-2-hydroxypropoxy]-6-methoxyquinolin-4-yl}oxy)phenyl]pyridine-3-carboxamide] | ≤ 100 | ≤ 100 | ≤ 100 | ≤ 100 |
| CCc1ccncc1C(=O)Nc1cc(F)c(Oc2ccnc3cc(OCCNC)c(OC)cc23)c(F)c1 [Example 49, N-(3,5-difluoro-4-((6-methoxy-7-(2-(methylamino)ethoxy)quinolin-4-yl)oxy)phenyl)-4-ethylpyridine-3-carboxamide] | 100 to 1000 | ≤ 100 | 100 to 1000 | ≤ 100 |
| CNCCOc1ccc2c(Oc3c(F)cc(NC(=O)c4cnccc4OC)cc3F)ccnc2c1 [Example 10, N-(3,5-difluoro-4-((7-(2-(methylamino)ethoxy)quinolin-4-yl)oxy)phenyl)-4-methoxypyridine-3-carboxamide] | ≤ 100 | ≤ 100 | ≤ 100 | ≤ 100 |
| COc1ccncc1C(=O)Nc1cc(F)c(Oc2ccnc3cc(OCC(C)(C)O)ccc23)c(F)c1 [Example 40, N-(3,5-difluoro-4-{[7-(2-hydroxy-2-methylpropoxy)quinolin-4-yl]oxy}phenyl)-4-methoxypyridine-3-carboxamide] | 100 to 1000 | ≤ 100 | 100 to 1000 | ≤ 100 |
| COc1cc2nccc(Oc3c(F)cc(NC(=O)c4cnccc4OC4CC4)cc3F)c2cc1O[C@@H](C)CO [Example 129, (S)-4-cyclopropoxy-N-(3,5-difluoro-4-((6-((1-hydroxypropan-2-yl)oxy)-7-methoxyquinolin-4-yl)oxy)phenyl)nicotinamide] | ≤ 100 | ≤ 100 | ≤ 100 | ≤ 100 |
| CCCCOc1ccncc1C(=O)Nc1cc(F)c(Oc2ccnc3cc(OCCNC)c(OC)cc23)c(F)c1 [Example 69, 4-butoxy-N-[3,5-difluoro-4-({6-methoxy-7-[2-(methylamino)ethoxy]quinolin-4-yl}oxy)phenyl]pyridine-3-carboxamide] | ≤ 100 | ≤ 100 | ≤ 100 | ≤ 100 |
| COc1cc2c(Oc3c(F)cc(NC(=O)c4c(OCC(F)F)ccnc4F)cc3F)ccnc2cc1OCCO [Example 141, N-(3,5-difluoro-4-((7-(2-hydroxyethoxy)-6-methoxyquinolin-4-yl)oxy)phenyl)-4-(2,2-difluoroethoxy)-2-fluoropyridine-3-carboxamide] | ≤ 100 | ≤ 100 | ≤ 100 | ≤ 100 |
| COCCOc1cc2nccc(Oc3c(F)cc(NC(=O)c4cnccc4OC)cc3F)c2cc1OCCOC [Example 43, N-(4-((6,7-bis(2-methoxyethoxy)quinolin-4-yl)oxy)-3,5-difluorophenyl)-4-methoxypyridine-3-carboxamide] | ≤ 100 | ≤ 100 | ≤ 100 | ≤ 100 |
| COCCOc1cnc2c(Oc3c(F)cc(NC(=O)c4ccccc4F)cc3F)ccnc2c1 [Example 140, N-(3,5-difluoro-4-((7-(2-methoxyethoxy)-1,5-naphthyridin-4-yl)oxy)phenyl)-2-fluorobenzamide] | ≤ 100 | ≤ 100 | ≤ 100 | ≤ 100 |
| CCOc1ccncc1C(=O)Nc1cc(F)c(Oc2ccnc3cc(OCCCN4CCOCC4)c(OC)cc23)c(F)c1 [Example 28, N-(3,5-difluoro-4-((6-methoxy-7-(3-morpholinopropoxy)quinolin-4-yl)oxy)phenyl)-4-ethoxypyridine-3-carboxamide] | ≤ 100 | ≤ 100 | ≤ 100 | ≤ 100 |
| COCCOc1cnc2c(Oc3c(F)cc(NC(=O)c4cnccc4OC)cc3F)ccnc2c1 [Example 139, N-(3,5-difluoro-4-((7-(2-methoxyethoxy)-1,5-naphthyridin-4-yl)oxy)phenyl)-4-methoxypyridine-3-carboxamide] | ≤ 100 | ≤ 100 | ≤ 100 | ≤ 100 |
| CNCCOc1ccc2c(Oc3c(F)cc(NC(=O)c4cnc(Cl)cc4OC4CC4)cc3F)ccnc2c1 [Example 113, 6-chloro-4-cyclopropoxy-N-[3,5-difluoro-4-({7-[2-(methylamino)ethoxy]quinolin-4-yl}oxy)phenyl]pyridine-3-carboxamide] | ≤ 100 | ≤ 100 | ≤ 100 | ≤ 100 |
| CCOc1ccnc(F)c1C(=O)Nc1cc(F)c(Oc2ccnc3cc(OCCCNC)c(OC)cc23)c(F)c1 [Example 119] | 100 to 1000 | ≤ 100 | 100 to 1000 | ≤ 100 |
| CNCCOc1cc2nccc(Oc3c(F)cc(NC(=O)c4cnccc4OC(F)F)cc3F)c2cc1OC [Example 47, N-(3,5-difluoro-4-((6-methoxy-7-(2-(methylamino)ethoxy)quinolin-4-yl)oxy)phenyl)-4-(difluoromethoxy)pyridine-3-carboxamide] | 100 to 1000 | ≤ 100 | 100 to 1000 | ≤ 100 |
| COc1ccc2c(Oc3c(F)cc(NC(=O)c4cnccc4OC4CC4)cc3F)ccnc2c1 [Example 90, 4-cyclopropoxy-N-{3,5-difluoro-4-[(7-methoxyquinolin-4-yl)oxy]phenyl}pyridine-3-carboxamide] | 100 to 1000 | ≤ 100 | ≤ 100 | ≤ 100 |
| CC(C)(O)COc1ccc2c(Oc3c(F)cc(NC(=O)c4cnccc4OC4CC4)cc3F)ccnc2c1 [Example 104, 4-cyclopropoxy-N-(3,5-difluoro-4-{[7-(2-hydroxy-2-methylpropoxy)quinolin-4-yl]oxy}phenyl)pyridine-3-carboxamide] | 1000 to 10000 | ≤ 100 | 100 to 1000 | ≤ 100 |
| COCCOc1ccc2c(Oc3c(F)cc(NC(=O)c4nnccc4OC4CC4)cc3F)ccnc2c1 [Example 120, 4-cyclopropoxy-N-(3,5-difluoro-4-((7-(2-methoxyethoxy)quinolin-4-yl)oxy)phenyl)pyridazine-3-carboxamide] | 100 to 1000 | ≤ 100 | 100 to 1000 | ≤ 100 |
| CNCCOc1cc2nccc(Oc3c(F)cc(NC(=O)c4cc(F)c(F)cc4OC)cc3F)c2cc1OC [Example 2, N-(3,5-difluoro-4-((6-methoxy-7-(2-(methylamino)ethoxy)quinolin-4-yl)oxy)phenyl)-4,5-difluoro-2-methoxybenzamide] | 1000 to 10000 | ≤ 100 | 100 to 1000 | ≤ 100 |
| COc1cc2c(Oc3c(F)cc(NC(=O)c4cnccc4OC)cc3F)ccnc2cc1OCCN1CCOCC1 [Example 29, N-[3,5-difluoro-4-({6-methoxy-7-[2-(morpholin-4-yl)ethoxy]quinolin-4-yl}oxy)phenyl]-4-methoxypyridine-3-carboxamide] | ≤ 100 | ≤ 100 | ≤ 100 | ≤ 100 |
| COc1cc2nccc(Oc3c(F)cc(NC(=O)c4cnccc4OC)cc3F)c2cc1OC1(CO)CC1 [Example 132, N-(3,5-difluoro-4-((6-(1-(hydroxymethyl)cyclopropoxy)-7-methoxyquinolin-4-yl)oxy)phenyl)-4-methoxynicotinamide] | ≤ 100 | ≤ 100 | ≤ 100 | ≤ 100 |
| CNCCCOc1cc2nccc(Oc3c(F)cc(NC(=O)c4cnccc4OC4CCC4)cc3F)c2cc1OC [Example 85, 4-cyclobutoxy-N-(3,5-difluoro-4-((6-methoxy-7-(3-(methylamino)propoxy)quinolin-4-yl)oxy)phenyl)pyridine-3-carboxamide] | 100 to 1000 | ≤ 100 | 100 to 1000 | ≤ 100 |
| COc1cc2nccc(Oc3c(F)cc(NC(=O)c4nnccc4OC4CC4)cc3F)c2cc1OC [Example 149, 4-cyclopropoxy-N-(4-((6,7-dimethoxyquinolin-4-yl)oxy)-3,5-difluorophenyl)pyridazine-3-carboxamide] | 100 to 1000 | ≤ 100 | ≤ 100 | ≤ 100 |
| CCCOc1ccncc1C(=O)Nc1cc(F)c(Oc2ccnc3cc(OCCNC)c(OC)cc23)cc1F [Example 52, N-(2,5-difluoro-4-((6-methoxy-7-(2-(methylamino)ethoxy)quinolin-4-yl)oxy)phenyl)-4-propoxypyridine-3-carboxamide] | 100 to 1000 | ≤ 100 | 100 to 1000 | ≤ 100 |
| COCCOc1ccc2c(Oc3c(F)cc(NC(=O)c4cnccc4OC4CC4)cc3F)ccnc2c1 [Example 105, 4-cyclopropoxy-N-(3,5-difluoro-4-{[7-(2-methoxyethoxy)quinolin-4-yl]oxy}phenyl)pyridine-3-carboxamide] | 100 to 1000 | ≤ 100 | ≤ 100 | ≤ 100 |
| CNCCOc1cc2nccc(Oc3c(F)cc(NC(=O)c4cnccc4OCCCF)cc3F)c2cc1OC [Example 58, N-[3,5-difluoro-4-({6-methoxy-7-[2-(methylamino)ethoxy]quinolin-4-yl}oxy)phenyl]-4-(3-fluoropropoxy)pyridine-3-carboxamide] | ≤ 100 | ≤ 100 | ≤ 100 | ≤ 100 |
